Experiments:
[1] = molecular target: T1, human FAAH (Fatty Acid Amide Hydrolase) (Homo sapiens, UniProt O00519); test: FAAH enzyme assay on CHO cell lysate expressing human FAAH (human LY), AAMCA fluorescent substrate; type: biochemical; details: human FAAH_CHO cell lysate
T1 construct: The full length FAAH was subcloned into the mammalian expression vector, pcDEF.neo, using XbaI and EcoRI restriction sites; expressed in transfected cells
T1 sequence (O00519 1-579): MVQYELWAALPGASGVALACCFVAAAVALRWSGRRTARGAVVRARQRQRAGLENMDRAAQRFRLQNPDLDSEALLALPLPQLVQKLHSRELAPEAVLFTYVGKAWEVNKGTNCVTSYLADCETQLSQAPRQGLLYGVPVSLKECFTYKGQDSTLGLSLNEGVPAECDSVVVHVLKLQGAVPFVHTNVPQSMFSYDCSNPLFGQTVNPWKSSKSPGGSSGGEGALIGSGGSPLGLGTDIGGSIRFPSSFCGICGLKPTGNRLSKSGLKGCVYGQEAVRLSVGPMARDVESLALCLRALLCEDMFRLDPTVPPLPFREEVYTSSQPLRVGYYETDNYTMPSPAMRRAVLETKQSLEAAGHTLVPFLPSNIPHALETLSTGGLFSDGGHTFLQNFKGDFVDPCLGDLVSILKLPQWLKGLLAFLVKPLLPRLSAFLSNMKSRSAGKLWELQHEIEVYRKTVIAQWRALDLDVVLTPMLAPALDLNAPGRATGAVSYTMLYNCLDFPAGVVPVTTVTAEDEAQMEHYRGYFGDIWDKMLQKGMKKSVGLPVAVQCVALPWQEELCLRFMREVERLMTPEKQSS
Method in brief: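 CHO cell lysate expressing full-length human FAAH, preincubated with compound 15 min at 22-25° C. in pH 8.0 phosphate buffer with 200 mM KCl and 0.1% fatty-acid-free BSA. 1 μM AAMCA final, 1-3 h at room temperature; 7-amino-4-methylcoumarin release read by fluorescence (Ex 360, Em 460 nm).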

[2] = molecular target: T1, human FAAH (Fatty Acid Amide Hydrolase); test: FAAH whole cell assay on CHO cells expressing human FAAH (human WC), AAMCA fluorescent substrate; type: cell-based; details: human FAAH_CHO whole cell
Method in brief: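 CHO cells stably expressing full-length human FAAH, harvested with enzyme-free dissociation and resuspended at 4×10^4 cells/assay (96-well) or 1×10^4 (384-well) in 50 mM phosphate pH 8.0, 1 mM EDTA, 200 mM KCl, 0.2% glycerol, 0.1% BSA.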

Structure (SMILES)	IC50 [1] [nM]	IC50 [2] [nM]
O=C(O)C1CC=C(c2[nH]c3ncccc3c2Sc2ccc(Cl)cc2)CC1 (stereo not shown) [Example B47]	252	573
CCNC(=O)C1CC=C(c2[nH]c3ncccc3c2Sc2ccc(Cl)cc2)CC1 (stereo not shown) [Example B48]	9.5	29.1
O=C(NCCO)C1CC=C(c2[nH]c3ncccc3c2Sc2ccc(Cl)cc2)CC1 (stereo not shown) [Example B49]	23.8	66.3
OCC1CC=C(c2[nH]c3ncccc3c2Sc2ccc(Cl)cc2)CC1 (stereo not shown) [Example B50, (4-{3-[(4-chlorophenyl)sulfanyl]-1H-pyrrolo[2,3-b]pyridin-2-yl}cyclohex-3-en-1-yl)methanol]	3.06	8.04
OC[C@H]1CC[C@@H](c2[nH]c3ncccc3c2Sc2ccc(Cl)cc2)CC1 [Example B51]	14.6	73.9
O=C(N[C@H]1CC[C@H](O)CC1)c1[nH]c2ncccc2c1Sc1ccc(Cl)cc1 [Example C4, 3-[(4-chlorophenyl)sulfanyl]-N-(trans-4-hydroxycyclohexyl)-1H-pyrrolo[2,3-b]pyridine-2-carboxamide]	7.64	48
COc1ccc(NC(=O)c2[nH]c3ncccc3c2Sc2ccc(Cl)cc2)cn1 [Example C8]	42.9	272
CC1(C)CCC(NC(=O)c2[nH]c3ncccc3c2Sc2ccc(Cl)cc2)CC1 [Example C9]	251	773
O=C(NCC(O)C1CCCCC1)c1[nH]c2ncccc2c1Sc1ccc(Cl)cc1 (stereo not shown) [Example C10]	660	1990
O=C(NCc1ccc(O)c(O)c1)c1[nH]c2ncccc2c1Sc1ccc(Cl)cc1 [Example C11]	15.2	107
O=C(c1[nH]c2ncccc2c1Sc1ccc(Cl)cc1)N1CCc2ccncc21 [Example C12]	2080	2680
CC(C1COc2ccccc2O1)N(C)C(=O)c1[nH]c2ncccc2c1Sc1ccc(Cl)cc1 (stereo not shown) [Example C13]	256	2630
O=C(Nc1ccc2c(c1)OCCO2)c1[nH]c2ncccc2c1Sc1ccc(Cl)cc1 [Example C14]	7.43	28.5
O=C(Nc1ccc2c(c1)OCO2)c1[nH]c2ncccc2c1Sc1ccc(Cl)cc1 [Example C15]	5.9	9.92
O=C(Nc1ccc2[nH]ncc2c1)c1[nH]c2ncccc2c1Sc1ccc(Cl)cc1 [Example C16]	9.79	18.1
O=C(NC1CCCCC1)c1[nH]c2ncccc2c1Sc1ccc(Cl)cc1 [Example C17]	30.4	101
O[C@H]1CC[C@H](c2[nH]c3ncccc3c2Sc2ccc(Cl)cc2)CC1 [Example D5, trans-4-{3-[(4-chlorophenyl)sulfanyl]-1H-pyrrolo[2,3-b]pyridin-2-yl}cyclohexanol]	3.83	9.16
O[C@H]1CC[C@H](c2[nH]c3ncccc3c2Sc2ccc(Cl)cn2)CC1 [Example D6, trans-4-{3-[(5-chloropyridin-2-yl)sulfanyl]-1H-pyrrolo[2,3-b]pyridin-2-yl}cyclohexanol]	13.4	32.7
O=C1CCC(c2[nH]c3ncccc3c2Sc2ccc(Cl)cc2)CC1 [Example D7, 4-{3-[(4-chlorophenyl)sulfanyl]-1H-pyrrolo[2,3-b]pyridin-2-yl}cyclohexanone]	14.2	22.8
Cn1cccc2c(Sc3ccc(Cl)cc3)c(-c3ccc4c(c3)OCCO4)nc1-2 [Example E2, 3-[(4-chlorophenyl)sulfanyl]-2-(2,3-dihydro-1,4-benzodioxin-6-yl)-7-methyl-7H-pyrrolo[2,3-b]pyridine]	9.7	23.4
Cn1c(-c2ccc3c(c2)OCCO3)c(Sc2ccc(Cl)cc2)c2cccnc21 [Example E3, 3-[(4-chlorophenyl)sulfanyl]-2-(2,3-dihydro-1,4-benzodioxin-6-yl)-1-methyl-1H-pyrrolo[2,3-b]pyridine]	6.51	16.6
Cn1cccc2c(Sc3ccc(Cl)cc3)c(-c3ccc4[nH]ncc4c3)nc1-2 [Example E4]	4.22	12.4

Structure (SMILES)	IC50 [1] [nM]	IC50 [2] [nM]
Cn1cccc2c(Sc3ccc(Cl)cc3)c(C3=CCC(O)CC3)nc1-2 (stereo not shown) [Example E5]	8.07	53.9
Cn1cccc2c(Sc3ccc(Cl)cc3)c([C@H]3CC[C@H](O)CC3)nc1-2 [Example E7]	9.92	18.8
COc1cc(-c2nc3n(C)cccc-3c2Sc2ccc(Cl)cc2)cnc1OC [Example E8]	12.4	72.7
Cn1cccc2c(Sc3ccc(Cl)cn3)c(-c3ccc4[nH]ncc4c3)nc1-2 [Example E9]	15.4	82.5
Cn1cccc2c(Sc3ccc(Cl)cc3)c(-c3ccc(C(O)C(F)(F)F)cc3)nc1-2 (stereo not shown) [Example E10]	18.5	70.6
Cn1cccc2c(Sc3ccc(Cl)cn3)c(-c3ccc4c(c3)OCO4)nc1-2 [Example E11]	26.6	71.6
OCCn1cccc2c(Sc3ccc(Cl)cc3)c(-c3ccc4c(c3)OCO4)nc1-2 [Example E12]	28.8	76.7
CCn1cccc2c(Sc3ccc(Cl)cc3)c(-c3ccc4c(c3)OCO4)nc1-2 [Example E13]	48.9	160
Cn1cccc2c(Sc3ccc(Cl)cn3)c(-c3ccc(C(O)C(F)(F)F)cc3)nc1-2 (stereo not shown) [Example E14]	116	925
Cn1cccc2c(Sc3ccc(Cl)cn3)c([C@H]3CC[C@H](O)CC3)nc1-2 [Example E16]	2030	8490
OCCn1cccc2c(Sc3ccc(Cl)cn3)c(-c3ccc4c(c3)OCCO4)nc1-2 [Example E17]	168	1300
Cn1cccc2c(Sc3ccc(Cl)cc3)c(C(=O)Nc3ccc4c(c3)OCCO4)nc1-2 [Example E18]	171	1340
Cn1cccc2c(Sc3ccc(Cl)cn3)c(C3=CCC(O)CC3)nc1-2 (stereo not shown) [Example E19]	181	1210
OCCn1cccc2c(Sc3ccc(Cl)cn3)c(-c3ccc4c(c3)OCO4)nc1-2 [Example E20]	289	1040
NC(=O)CCn1cccc2c(Sc3ccc(Cl)cc3)c(-c3ccc4c(c3)OCO4)nc1-2 [Example E21]	317	1390
Clc1ccc(Sc2c3cccn(CCn4cccc4)c-3nc2-c2ccc3c(c2)OCO3)cc1 [Example E22]	497	3220
Cn1cccc2c(Sc3ccc(Cl)cn3)c([C@H]3CC[C@@H](O)CC3)nc1-2 [Example E23]	148	252
Cn1c(-c2ccc(C(O)C(F)(F)F)cc2)c(Sc2ccc(Cl)cc2)c2cccnc21 (stereo not shown) [Example E33]	106	186
Cn1c2ncccc2c(Sc2ccc(Cl)cc2)c1[C@H]1CC[C@H](O)CC1 [Example E34]	7.08	9.93
OCCn1c(-c2ccc3c(c2)OCO3)c(Sc2ccc(Cl)cc2)c2cccnc21 [Example E35]	31.7	115
COc1ccc(Cc2[nH]c3ncccc3c2Sc2ccc(Cl)cc2)cc1 [Example F2, 3-[(4-chlorophenyl)sulfanyl]-2-(4-methoxybenzyl)-1H-pyrrolo[2,3-b]pyridine]	52.9	151
N#Cc1ccccc1-c1[nH]c2ncccc2c1Sc1ccc(Cl)cc1 [Example F8]	12.2	69.4
